PubChem BioAssay AID1963858 (Molecular Pharmacology Branch, DTP, NCI, 2024)
Values joined by “and” are separate entries in the source; they are usually repeats but may differ in a detail not shown here. Identical values can stand only once.

Test system: HOP-62 multicell spheroids with HUVEC/MSC, viability
Assay: Anticancer human tumor HOP-62 cell line growth inhibition [KRAS2];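 further: viability read after a week of compound exposure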;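 on viability, T/C: 100% = DMSO vehicle-treated spheroids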
Conditions: for viability, T/C: stronger effect = lower value
Method in brief: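 Combination screen of spheroid viability in tumor-cell co-cultures with endothelial (HUVEC) and mesenchymal stem cell stroma. Each agent was tested in half-log dilutions, topping at clinical Cmax or at 10 microM without a known Cmax.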

[1] = curve of first compound, second compound 0.1 µM
[2] = curve of first compound, second compound 0.316 µM
[3] = curve of first compound, second compound 1 µM
[4] = curve of first compound, second compound 3.16 µM
[5] = curve of first compound, second compound 10 µM
[6] = second compound 0.1 µM, first compound 0.0316 µM
[7] = second compound 0.1 µM, first compound 0.1 µM
[8] = second compound 0.1 µM, first compound 0.316 µM
[9] = second compound 0.1 µM, first compound 1 µM
[10] = second compound 0.1 µM, first compound 3.16 µM
[11] = second compound 0.1 µM, first compound 10 µM
[12] = second compound 0.316 µM, first compound 0.0316 µM
[13] = second compound 0.316 µM, first compound 0.1 µM
[14] = second compound 0.316 µM, first compound 0.316 µM
[15] = second compound 0.316 µM, first compound 1 µM
[16] = second compound 0.316 µM, first compound 3.16 µM
[17] = second compound 0.316 µM, first compound 10 µM
[18] = second compound 1 µM, first compound 0.0316 µM
[19] = second compound 1 µM, first compound 0.1 µM
[20] = second compound 1 µM, first compound 0.316 µM
[21] = second compound 1 µM, first compound 1 µM
[22] = second compound 1 µM, first compound 3.16 µM
[23] = second compound 1 µM, first compound 10 µM
[24] = second compound 3.16 µM, first compound 0.0316 µM
[25] = second compound 3.16 µM, first compound 0.1 µM
[26] = second compound 3.16 µM, first compound 0.316 µM
[27] = second compound 3.16 µM, first compound 1 µM
[28] = second compound 3.16 µM, first compound 3.16 µM
[29] = second compound 3.16 µM, first compound 10 µM
[30] = second compound 10 µM, first compound 0.0316 µM
[31] = second compound 10 µM, first compound 0.1 µM
[32] = second compound 10 µM, first compound 0.316 µM
[33] = second compound 10 µM, first compound 1 µM
[34] = second compound 10 µM, first compound 3.16 µM
[35] = second compound 10 µM, first compound 10 µM

Compound | IC50 [1] [nM] | IC50 [2] [nM] | IC50 [3] [nM] | IC50 [4] [nM] | viability, T/C [6] [%] | viability, T/C [7] [%] | viability, T/C [8] [%] | viability, T/C [9] [%] | viability, T/C [10] [%] | viability, T/C [11] [%] | viability, T/C [12] [%] | viability, T/C [13] [%] | viability, T/C [14] [%] | viability, T/C [15] [%] | viability, T/C [16] [%] | viability, T/C [17] [%] | viability, T/C [18] [%] | viability, T/C [19] [%] | viability, T/C [20] [%] | viability, T/C [21] [%] | further results
COc1cc2nccc(Oc3ccc(NC(=O)C4(C(=O)Nc5ccc(F)cc5)CC4)cc3)c2cc1OC + CNCc1ccccc1-c1csc(C(C)Nc2nc(C)nc3cc(OC)c(OC)cc23)c1 | 5360 | 4800 | 3670 | < 31.6 | 92.4 | 94.1 | 102 | 96.3 | 76 | 19.3 | 90.6 | 82.8 | 81.7 | 86.9 | 69.8 | 15.2 | 74.7 | 79.2 | 85.6 | 80.7 | IC50 [5]: < 31.6 nM; viability, T/C [22]: 57.5%; viability, T/C [23]: 0.44%; viability, T/C [24]: 0.34%; viability, T/C [25]: 0.17%; viability, T/C [26]: 0.13%; viability, T/C [27]: 0.15%; viability, T/C [28]: 0.22%; viability, T/C [29]: 0.14%; viability, T/C [30]: 0.12%; viability, T/C [31]: 0.14%; viability, T/C [32]: 0.12%; viability, T/C [33]: 0.11%; viability, T/C [34]: 0.12%; viability, T/C [35]: 0.19%
CC1(C)CCC(CN2CCN(c3ccc(C(=O)NS(=O)(=O)c4ccc(NCC5CCOCC5)c([N+](=O)[O-])c4)c(Oc4cnc5[nH]ccc5c4)c3)CC2)=C(c2ccc(Cl)cc2)C1 + C=CC(=O)N1CCN(c2nc(OCC3CCCN3C)nc3c2CCN(c2cccc4cccc(C)c24)C3)CC1CC#N | < 31.6 | < 31.6 | < 31.6 | < 31.6 | 48.9 | 41.4 | 37.8 | 36.4 | 37.2 | 21.6 | 36.6 | 41.6 | 26.4 | 38.2 | 26.9 | 16 | 24.6 | 22.6 | 27.1 | 22.9 | IC50 (curve of first compound, second compound 0.0316 µM): 1510 nM; viability, T/C (second compound 0.0316 µM, first compound 0.0316 µM): 58.8%; viability, T/C (second compound 0.0316 µM, first compound 0.1 µM): 54.1%; viability, T/C (second compound 0.0316 µM, first compound 0.316 µM): 54.9%; viability, T/C (second compound 0.0316 µM, first compound 1 µM): 56%; viability, T/C (second compound 0.0316 µM, first compound 3.16 µM): 39.5%; viability, T/C (second compound 0.0316 µM, first compound 10 µM): 22.7%; viability, T/C [22]: 24.1%; viability, T/C [23]: 5.4%; viability, T/C [24]: 1.22%; viability, T/C [25]: 0.15%; viability, T/C [26]: 0.14%; viability, T/C [27]: 0.16%; viability, T/C [28]: 0.14%; viability, T/C [29]: 0.18%
CCN1CCN(Cc2ccc(Nc3ncc(F)c(-c4cc(F)c5nc(C)n(C(C)C)c5c4)n3)nc2)CC1 |  |  |  |  |  |  |  |  |  |  |  |  |  |  |  |  |  |  |  |  | viability, T/C (compound 0.00316 µM): 102% [middle of 5 runs]; viability, T/C (compound 0.01 µM): 102% [middle of 5 runs]; viability, T/C (compound 0.0316 µM): 99.7% [middle of 5 runs]; viability, T/C (compound 0.1 µM): 98.1% [middle of 5 runs]; viability, T/C (compound 0.316 µM): 86.3% [middle of 5 runs]; viability, T/C (compound 1 µM): 68% [middle of 5 runs]; IC50 (curve of compound): > 1000 nM
CC(=O)Nc1cccc(-n2c(=O)n(C3CC3)c(=O)c3c(Nc4ccc(I)cc4F)n(C)c(=O)c(C)c32)c1 |  |  |  |  |  |  |  |  |  |  |  |  |  |  |  |  |  |  |  |  | viability, T/C (compound 0.0001 µM): 107% [middle of 5 runs]; viability, T/C (compound 0.000316 µM): 107% [middle of 5 runs]; viability, T/C (compound 0.001 µM): 87.9% [middle of 5 runs]; viability, T/C (compound 0.00316 µM): 61.7% [middle of 5 runs]; viability, T/C (compound 0.01 µM): 31% [middle of 5 runs]; viability, T/C (compound 0.0316 µM): 31.2% [middle of 5 runs]; IC50 (curve of compound): 4.9 nM [middle of 5 runs]
CCNC(=O)CC1N=C(c2ccc(Cl)cc2)c2cc(OC)ccc2-n2c(C)nnc21 (stereo not given) + COc1cc2nc(C)nc(NC(C)c3cc(N)cc(C(F)(F)F)c3)c2cc1OC1CCOC1 | 271 | 189 | 193 | 60.8 | 90.5 | 75.9 | 44.3 | 29.4 | 21.9 | 18.2 | 90.4 | 65 | 37.8 | 23.7 | 19 | 18.5 | 89.2 | 59.8 | 46.9 | 17.5 | IC50 [5]: < 31.6 nM; viability, T/C [22]: 16.9%; viability, T/C [23]: 14.4%; viability, T/C [24]: 60.1%; viability, T/C [25]: 41.7%; viability, T/C [26]: 29.1%; viability, T/C [27]: 17.2%; viability, T/C [28]: 15.5%; viability, T/C [29]: 15.2%; viability, T/C [30]: 43%; viability, T/C [31]: 35.9%; viability, T/C [32]: 29.3%; viability, T/C [33]: 15.8%; viability, T/C [34]: 9.2%; viability, T/C [35]: 4.11%
COc1cc2nccc(Oc3ccc(NC(=O)C4(C(=O)Nc5ccc(F)cc5)CC4)cc3)c2cc1OC + COc1cc2nc(C)nc(NC(C)c3cc(N)cc(C(F)(F)F)c3)c2cc1OC1CCOC1 | > 10000 | > 10000 | > 10000 | 901 | 100 | 113 | 113 | 80.8 | 63.8 | 123 | 89.4 | 114 | 126 | 85.8 | 59.4 | 114 | 86.8 | 92.2 | 101 | 55.9 | IC50 [5]: 235 nM; viability, T/C [22]: 47%; viability, T/C [23]: 97.5%; viability, T/C [24]: 71.8%; viability, T/C [25]: 94.9%; viability, T/C [26]: 81.6%; viability, T/C [27]: 46%; viability, T/C [28]: 0.59%; viability, T/C [29]: 94%; viability, T/C [30]: 54.9%; viability, T/C [31]: 49.1%; viability, T/C [32]: 49.3%; viability, T/C [33]: 24.5%; viability, T/C [34]: 0.58%; viability, T/C [35]: 73%
CC1OCC2(CCN(c3cnc(Sc4ccnc(N)c4Cl)c(N)n3)CC2)C1N (stereo not given) |  |  |  |  |  |  |  |  |  |  |  |  |  |  |  |  |  |  |  |  | viability, T/C (compound 0.0316 µM): 103% (2×) and 77%; viability, T/C (compound 0.1 µM): 92.2% [middle of 19 runs]; IC50 (compound alone, run of 07/12/2021): 2.29 µM [middle of 6 runs]; IC50 (curve of compound): > 10000 nM and 3820 nM and 9820 nM
CC1OCC2(CCN(c3cnc(Sc4ccnc(N)c4Cl)c(N)n3)CC2)C1N (stereo not given) + CNCc1ccccc1-c1csc(C(C)Nc2nc(C)nc3cc(OC)c(OC)cc23)c1 | > 10000 | > 10000 | 638 | < 31.6 | 89.8 | 80.4 | 74.1 | 67.5 | 65.3 | 58.8 | 85.5 | 88 | 69.2 | 53.6 | 52.3 | 49.7 | 82.3 | 76.2 | 58.8 | 45.4 | IC50 [5]: < 31.6 nM; viability, T/C [22]: 33.5%; viability, T/C [23]: 34.1%; viability, T/C [24]: 34.3%; viability, T/C [25]: 7.49%; viability, T/C [26]: 0.61%; viability, T/C [27]: 0.1%; viability, T/C [28]: 0.15%; viability, T/C [29]: 0.15%; viability, T/C [30]: 0.13%; viability, T/C [31]: 0.17%; viability, T/C [32]: 0.09%; viability, T/C [33]: 0.09%; viability, T/C [34]: 0.6%; viability, T/C [35]: 0.16%
CC1(C)CCC(CN2CCN(c3ccc(C(=O)NS(=O)(=O)c4ccc(NCC5CCOCC5)c([N+](=O)[O-])c4)c(Oc4cnc5[nH]ccc5c4)c3)CC2)=C(c2ccc(Cl)cc2)C1 |  |  |  |  |  |  |  |  |  |  |  |  |  |  |  |  |  |  |  |  | viability, T/C (compound 0.0316 µM): 97.8% [middle of 5 runs]; viability, T/C (compound 0.1 µM): 98.4% [middle of 5 runs]; viability, T/C (compound 0.316 µM): 93.6% [middle of 5 runs]; viability, T/C (compound 1 µM): 89.2% [middle of 5 runs]; viability, T/C (compound 3.16 µM): 73.1% [middle of 5 runs]; viability, T/C (compound 10 µM): 26.2% [middle of 5 runs]; IC50 (curve of compound): 5.7 µM [middle of 5 runs]
